Assay results as given in US7897750B2, “Strategies for gene expression analysis” (Althea Technologies, Inc., priority 2002, dated 2011).

Test system: HepG2 cells
Experiment: Multiplex rtPCR gene expression time course (15-plex) in treated cells
Type: cell-based
Details: 5×10^4 HepG2 cells, 25 μM, timepoints T=0, 2, 4, 8, 24, 48, 120 hours, triplicate, FIG. 9
Description: Cells were treated in triplicate and timepoints were collected at T=0, 2, 4, 8, 24, 48, and 120 hours. RNA was isolated using Qiagen's RNeasy kit for 96 well plates and the concentration was monitored using a Ribogreen Assay (Molecular Probes). The concentration of RNA from each sample was normalized to 5 ng/μl. rtPCR was carried out using 25 ng of RNA from each sample and the products were analyzed using an ABI 3100 Genetic Analyzer. Gene expression is expressed as a ratio to that of GAPDH. The multiplex included the following list of genes.
CV's for all genes and data points within the experiment ranged from a few percent to 20%.

CC[C@H]1CN2CCc3cc(OC)c(OC)cc3[C@@H]2C[C@@H]1C[C@H]1NCCc2cc(OC)c(OC)cc21 [emitine]
GRO1 gene expression, ratio to that of GAPDH: clear trends of induction | Il-8 gene expression, ratio to that of GAPDH: clear trends of induction
